In article PMC7555825, “New Insights of the Zn(II)-Induced P2 × 4R Positive Allosteric Modulation: Role of Head Receptor Domain SS2/SS3, E160 and D170” (International Journal of Molecular Sciences, 2020):
Changes are numbered by the printed parent chain. Blank lines part the entries; values can stand above or below the molecule they belong to.

Tests used:
[1] = molecular target: T1, rP2 × 4R C132A/C159A mutant (Rattus norvegicus, UniProt P51577, C132A/C159A); experiment: ATP concentration–response curves, voltage clamp, C132A/C159A double mutant; type: cell-based; conditions: for EC50: ATP EC50, C132A/C159A
T1 construct: host or cells: Xenopus laevis oocytes
T1 sequence (P51577 1-388 C132A/C159A): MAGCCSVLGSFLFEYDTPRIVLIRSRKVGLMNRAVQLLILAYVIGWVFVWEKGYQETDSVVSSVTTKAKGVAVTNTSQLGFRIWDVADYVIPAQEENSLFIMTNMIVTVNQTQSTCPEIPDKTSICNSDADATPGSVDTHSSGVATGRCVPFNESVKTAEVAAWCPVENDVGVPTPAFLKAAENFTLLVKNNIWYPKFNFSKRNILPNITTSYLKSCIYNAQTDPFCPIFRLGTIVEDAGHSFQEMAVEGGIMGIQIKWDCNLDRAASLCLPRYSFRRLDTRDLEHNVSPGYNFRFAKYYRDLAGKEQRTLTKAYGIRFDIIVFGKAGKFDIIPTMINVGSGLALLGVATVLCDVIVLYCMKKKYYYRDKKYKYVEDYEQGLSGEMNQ

rP2 × 4R C159T mutant = molecular target: T2, rP2 × 4R C159T mutant (Rattus norvegicus, UniProt P51577, C159T); experiment: ATP concentration–response curves, voltage clamp, C159T mutant; type: cell-based; conditions: for EC50: ATP EC50, C159T
T2 construct: expressed in transfected cells; host or cells: Xenopus laevis oocytes
T2 sequence (P51577 1-388 C159T): T1 sequence (P51577 1-388 C132A/C159A) with A132C, A159T

rP2 × 4R D170N mutant = molecular target: T3, rP2 × 4R D170N mutant (Rattus norvegicus, UniProt P51577, D170N); experiment: ATP concentration–response curves, voltage clamp, D170N mutant; type: cell-based; conditions: for EC50: ATP EC50, D170N
T3 construct: host or cells: Xenopus laevis oocytes
T3 sequence (P51577 1-388 D170N): T1 sequence (P51577 1-388 C132A/C159A) with A132C, A159C, D170N

rP2 × 4R E160Q mutant = molecular target: T4, rP2 × 4R E160Q mutant (Rattus norvegicus, UniProt P51577, E160Q); experiment: ATP concentration–response curves, voltage clamp, E160Q mutant; type: cell-based; conditions: for EC50: ATP EC50, E160Q
T4 construct: host or cells: Xenopus laevis oocytes
T4 sequence (P51577 1-388 E160Q): T1 sequence (P51577 1-388 C132A/C159A) with A132C, A159C, E160Q

rP2 × 4R = molecular target: T5, rP2 × 4R (Rattus norvegicus, UniProt P51577); experiment: ATP concentration–response curves, two-electrode voltage clamp in oocytes expressing wild type rP2 × 4R; type: cell-based
T5 construct: host or cells: Xenopus laevis oocytes (intranuclear plasmid injection, pcDNA3)
T5 sequence (P51577 1-388): T1 sequence (P51577 1-388 C132A/C159A) with A132C, A159C

D170A mutant = test system: D170A mutant; design: method as in Kasuya et al., (2016) 38; conditions: ref Kasuya et al., (2016) 38; cited from earlier work
rP2 × 4R E118Q mutant = molecular target: T6, rP2 × 4R E118Q mutant (Rattus norvegicus, UniProt P51577, E118Q); experiment: ATP concentration–response curves, voltage clamp, E118Q mutant; type: cell-based; conditions: 10 µM Zn(II)
T6 construct: host or cells: Xenopus laevis oocytes
T6 sequence (P51577 1-388 E118Q): T1 sequence (P51577 1-388 C132A/C159A) with E118Q, A132C, A159C

- EC50 ([1]; +10 µM Zn(II)): 4.5 ± 1.6 µM
- EC50 ([1]; control): 77.1 ± 24.1 µM
- EC50 (rP2 × 4R C159T mutant; +10 µM Zn(II)): 7 ± 2 µM
- EC50 (rP2 × 4R C159T mutant; control): 37.3 ± 8.8 µM
- EC50 (rP2 × 4R D170N mutant; +10 µM Zn(II)): 12.8 ± 8.1 µM
- EC50 (rP2 × 4R D170N mutant; control): 19.3 ± 10.5 µM
- EC50 (rP2 × 4R E160Q mutant; +10 µM Zn(II)): 25.9 ± 7.1 µM
- EC50 (rP2 × 4R E160Q mutant; control): 23.8 ± 10.1 µM
- EC50 (rP2 × 4R; ATP EC50, NEM treatment + Zn(II) group, control before treatment (first ATP curve)): 24.5 ± 9.1 µM
- EC50 (rP2 × 4R; ATP EC50, NEM treatment + vehicle group, control before treatment (first ATP curve)): 23 ± 8.3 µM
- EC50 (rP2 × 4R; ATP EC50, P2 × 4 WT, control): 27.5 ± 10.6 µM
- EC50 (rP2 × 4R; ATP EC50, after 300 µM DTNB + 10 µM Zn(II) treatment and washout, Figure S3): 79.8 ± 64.4 µM
- EC50 (rP2 × 4R; ATP EC50, after 300 µM NEM + 10 µM Zn(II) treatment, control = ATP curve after treatment): 44.9 ± 17.7 µM
- EC50 (rP2 × 4R; ATP EC50, after 300 µM NEM + vehicle treatment, control = ATP curve after treatment): 23.8 ± 7 µM
- EC50 (rP2 × 4R; ATP EC50, control of the DTNB + Zn(II) experiment, Figure S3): 50.3 ± 16 µM
- EC50 (rP2 × 4R; ATP EC50, vehicle-treated oocytes (Barth's buffer), Figure 1A, without Zn(II)): 35.3 ± 6.6 µM
- Imax (rP2 × 4R; after 300 µM NEM + 10 µM Zn(II) treatment, ATP curve in presence of 10 µM Zn(II)): 9.3 ± 2.2 µA
Structure (SMILES): Nc1ncnc2c1ncn2[C@@H]1O[C@H](COP(=O)(O)OP(=O)(O)OP(=O)(O)O)[C@@H](O)[C@H]1O [ATP, adenosine triphosphate]

Structure (SMILES): [Cl-].[Cl-].[Zn+2] [Zn(II), zinc chloride (ZnCl2)]
- fold reduction in ATP EC50 by Zn(II) ([1]; C132A/C159A, 10 µM Zn(II)): 17.1 fold
- fold ATP EC50 reduction by Zn(II) (rP2 × 4R C159T mutant; C159T, 10 µM Zn(II)): 5.32 fold
- fold potentiation of the 3 µM ATP-gated currents (D170A mutant): 2 fold
- EC50 ratio in the metal presence (rP2 × 4R D170N mutant; D170N, 10 µM Zn(II)): 1.5
- Zn(II) modulation of the mutant (rP2 × 4R E160Q mutant; E160Q, 10 µM Zn(II)): resistant to Zn(II) modulation
- fold leftward shift of ATP concentration–response curve by Zn(II) (rP2 × 4R E118Q mutant): 13.6 fold
- fold reduction of ATP EC50 by Zn(II) (rP2 × 4R; 10 µM Zn(II), vehicle-treated oocytes): 3.82 fold
- fold leftward shift of ATP EC50 by Zn(II) (rP2 × 4R; WT, matched paired control oocytes, 10 µM Zn(II)): 3.45 fold
